How the values were obtained:
hTERT = assay: Secreted alkaline phosphatase (SEAP) assay, PhTERT-SEAP (H1299); format: cell-based; conditions: Homo sapiens, 24 hours; for activity at 1 µM: NCI-H1299, Conc. 1 μM, read-out: Relative SEAP activity (%); for activity at 10 µM: NCI-H1299, Conc. 10 μM; for activity at 10 µM / activity at 100 µM: read-out: Relative SEAP activity (%) (converted); for activity at 100 µM: NCI-H1299, Conc. 100 μM
Protocol: H1299 were grown in RPMI 1640 media supplemented with 10% fetal bovine serum, 100 units/mL penicillin and […] streptomycin in a humidified atmosphere with 5% CO2 at 37° C. Culture media were changed every three days. To establish stable cell lines that the expression of hTERT could be monitored by a reporter system, a about 3.3 kbp DNA fragment ranging from −3338 to +1 bp of the hTERT gene (hTERT promoter, PhTERT) was subcloned upstream to a secreted alkaline phosphatase gene (SEAP) and transfected into H1299 by electroporation. The stable clones were selected using G418. The stable clones derived from H1299 were cultured using conditions that are similar to their parental cells.
Secreted alkaline phosphatase was used as the reporter system to monitor the transcriptional activity of hTERT. Here, about 10^4 cells each were grown in 96-well plates and incubated at 37° C. for 24 hours and changed with fresh media. Varying amounts of drugs were added and cells were incubated for another 24 hours. Culture media were collected and heated at 65° C. for 10 min to inactivate heat-labile phosphatases. An equal amount of SEAP buffer (2 M diethanolamine, 1 mM MgCl2, and 20 mM L-homoarginine) was added to the media and p-nitrophenyl phosphate was added to a final concentration of 12 mM. Absorptions at 405 nm were taken, and the rate of absorption increase is determined (the increasing rate of absorbance at 405 nm was used to represent the activity of SEAP).

[1] = MTT assay, PhTERT-SEAP (H1299); format: cell-based, human; conditions: human, H1299 cells carrying the PhTERT-SEAP reporter, PhTERT-SEAP (H1299); for viability at 1 μM: Conc. 1 μM, read-out: Relative MTT viability (%); for viability at 10 μM: Conc. 10 μM; for viability at 10 μM / viability at 100 μM: read-out: Relative MTT viability (%) (converted); for viability at 100 μM: Conc. 100 μM
Protocol: Further, cells were subjected to MTT assay to compare the relative toxicity or effect of each compound on cell proliferation and activity.
The above-described cells are cultured in a 96-well plate, to which was added with 25 μl MTT solution, and cultured in a 37° C. carbon dioxide incubator for 4 hours. Then, 100 μl Lysis buffer is added and incubated in a 37° C. carbon dioxide incubator overnight. An ELISA reader (Bio-Rad Model 450) is used to read optical density (O.D.) at 550 nm.

| Compound | melting point | activity at 1 µM (hTERT) | activity at 10 µM (hTERT) | activity at 100 µM (hTERT) | viability at 1 μM [1] | viability at 10 μM [1] | viability at 100 μM [1] |
| --- | --- | --- | --- | --- | --- | --- | --- |
| Nc1ccc2c(c1N)C(=O)c1ccccc1C2=O [1,2-diaminoanthraquinone, reference compound] | – | 98.5 ± 11.7% | 77.3% | 18.2% | – | – | – |
| O=C(CCCl)Nc1ccc2c(c1NC(=O)CCCl)C(=O)c1ccccc1C2=O [CC-02, 1,2-bis-(3-chloropropionamido)-anthraquinone] | 179 to 180 °C | 96.3 ± 3.31% | 94.7% | 16% | 101 ± 4.37% | 83.8% | 5.38% |
| O=C(CCCCl)Nc1ccc2c(c1NC(=O)CCCCl)C(=O)c1ccccc1C2=O [CC-03, 1,2-bis-(4-chlorobutyramido)-anthraquinone] | 154 to 155 °C | 114 ± 6.14% | 92.9% | 15.2% | 103 ± 7.01% | 79.9% | 19% |
| Nc1c(NC(=O)CCl)ccc2c1C(=O)c1ccccc1C2=O [CC-05, 1-(amino)-2-(chloroacetamido)-anthraquinone] | 193 to 194 °C | 42 ± 4.16% | 6.73 ± 0.83% | 3.23 ± 1.22% | 64.3 ± 8.97% | – | – |
| O=C(CCl)Nc1ccc2c(c1NC(=O)CCCl)C(=O)c1ccccc1C2=O [CC-07, 1-[(3-chloropropanyl)amido]-2-(chloroacetamido)-anthraquinone] | 182 to 183 °C | 114 ± 6.14% | 92.9% | 15.2% | 103 ± 7.01% | 79.9% | 19% |
| O=C(CCl)Nc1ccc2c(c1NC(=O)CCCCl)C(=O)c1ccccc1C2=O [CC-08, 1-[(4-chlorobutanyl)amido]-2-(chloroacetamido)-anthraquinone] | 163 to 164 °C | 108 ± 9.03% | 97.1% | 30.9% | 100 ± 4.4% | 117% | 62% |
| O=C(CCl)Nc1ccc2c(c1NC(=O)c1ccccc1)C(=O)c1ccccc1C2=O [CC-09, 1-(benzamido)-2-(chloroacetamido)-anthraquinone] | 203 to 204 °C | 96.3 ± 3.31% | 94.7% | 16% | 101 ± 4.37% | 83.8% | 5.38% |
| Cc1ccccc1C(=O)Nc1c(NC(=O)CCl)ccc2c1C(=O)c1ccccc1C2=O [CC-10, 1-(2-methylbenzamido)-2-(chloroacetamido)-anthraquinone] | 179 to 180 °C | 98.6 ± 7.92% | -3.13% | -5.69% | 73.8 ± 7.94% | – | – |
| Cc1cccc(C(=O)Nc2c(NC(=O)CCl)ccc3c2C(=O)c2ccccc2C3=O)c1 [CC-11, 1-(3-methylbenzamido)-2-(chloroacetamido)-anthraquinone] | 202 to 203 °C | 116 ± 14.8% | -1.91% | -3.1% | 72.8 ± 3.83% | 0.7% | – |
| O=C(CCl)Nc1ccc2c(c1NC(=O)c1cccc(C(F)(F)F)c1)C(=O)c1ccccc1C2=O [CC-20, 1-[3-(trifluoromethyl)benzamido]-2-(chloroacetamido)-anthraquinone] | 190 to 191 °C | 99.8 ± 4.15% | 4.53% | 0.32% | 94.7 ± 3.59% | 5.15% | 3.37% |
| O=C1c2c(O)ccc(O)c2C(=O)c2c(NCCNCCO)ccc(NCCNCCO)c21 [mitoxantrone, reference compound] | – | 20.8 ± 1.56% | 9.92% | 7.19% | – | – | – |

Further lines, with some results ahead:

| melting point | Compound | activity at 1 µM (hTERT) | activity at 10 µM (hTERT) | activity at 100 µM (hTERT) | viability at 1 μM [1] | viability at 10 μM [1] | viability at 100 μM [1] |
| --- | --- | --- | --- | --- | --- | --- | --- |
| 245 to 246 °C | O=C(CCl)Nc1ccc2c(c1NC(=O)c1ccccc1F)C(=O)c1ccccc1C2=O [CC-13, 1-(2-fluorobenzamido)-2-(chloroacetamido)-anthraquinone] | 105 ± 12.7% | 5.89% | 2.11% | 78.8 ± 7.83% | 2.77% | – |
| 193 to 194 °C | O=C(CCl)Nc1ccc2c(c1NC(=O)c1ccccc1Cl)C(=O)c1ccccc1C2=O [CC-16, 1-(2-chlorobenzamido)-2-(chloroacetamido)-anthraquinone] | 81.6 ± 48.2% | 5.35% | 1.23% | 102 ± 4.26% | 6.63% | – |
| 188 to 189 °C | O=C(CCl)Nc1ccc2c(c1NC(=O)c1cccc(Cl)c1)C(=O)c1ccccc1C2=O [CC-17, 1-(3-chlorobenzamido)-2-(chloroacetamido)-anthraquinone] | 80.9 ± 3.9% | 6.65% | 3.51% | 89.7 ± 2.74% | 5.08% | – |
| 224 to 225 °C | O=C(CCl)Nc1ccc2c(c1NC(=O)c1ccc(Cl)cc1)C(=O)c1ccccc1C2=O [CC-18, 1-(4-chlorobenzamido)-2-(chloroacetamido)-anthraquinone] | 98.7 ± 5.6% | 6.26% | 4.95% | 92.4 ± 7.16% | 5.17% | 4.25% |
| 248 to 250 °C | O=C(CCl)Nc1ccc2c(c1NC(=O)c1ccccc1C(F)(F)F)C(=O)c1ccccc1C2=O [CC-19, 1-[2-(trifluoromethyl)benzamido]-2-(chloroacetamido)-anthraquinone] | 93.5 ± 6.11% | 4.89% | 2.4% | 93.2 ± 2.95% | 3.42% | – |
| 203 to 204 °C | O=C(CCl)Nc1ccc2c(c1NC(=O)c1ccc(C(F)(F)F)cc1)C(=O)c1ccccc1C2=O [CC-21, 1-[4-(trifluoromethyl)benzamido]-2-(chloroacetamido)-anthraquinone] | 85.9 ± 8% | 8.61 ± 0.0611% | 6.49% | 86.3 ± 2.6% | 6.58% | – |
| 187 to 188 °C | O=C(CCl)Nc1ccc2c(c1NC(=O)c1cc(C(F)(F)F)ccc1C(F)(F)F)C(=O)c1ccccc1C2=O [CC-22, 1-1-[2,5-bis-(trifluoromethyl)benzamido]-2-(chloroacetamido)-anthraquinone] | 90.3 ± 1.77% | 5.11% | 4.11% | 86.7 ± 2.13% | 8.81% | – |
| 213 to 214 °C | O=C(CCl)Nc1ccc2c(c1NC(=O)Cc1ccc(F)cc1)C(=O)c1ccccc1C2=O [CC-24, 1-[2-(4-fluorophenyl)acetylamino]-2-(chloroacetamido)-anthraquinone] | 93.1 ± 5.96% | 8.4% | 1.75% | 88.9 ± 5.07% | 7.31% | 6.17% |
| 190 to 191 °C | O=C(CCl)Nc1ccc2c(c1NC(=O)c1cccs1)C(=O)c1ccccc1C2=O [CC-28, 1-[(2-thiophenecarbonyl)amino]-2-(chloroacetamido)-anthraquinone] | 5.81 ± 23.3% | 3.03% | 2.2% | – | – | – |

— patent publication US8530465B2, “1, 2-disubstituted amido-anthraquinone derivatives, preparation method and application thereof” (National Defense Medical Center, priority 2010, dated 2013)
